Measured values from the NIST ThermoML archive (doi:10.1016/j.jct.2018.12.002).
± gives the expanded uncertainty stated by the source.

Test: molar heat capacity at constant pressure
Details: 1943 K; 101.33 kPa; Liquid; Levitation methods

molar heat capacity at constant pressure: 44.9 ± 4.3 J/K/mol
Compound: [Ti] [titanium]
